The source of these data is patent US9115092B2, “Substituted quinazoline and pyrido-pyrimidine derivatives” (Asana Biosciences, LLC, priority 2010, dated 2015).

The structures appear in SMILES notation.

One experiment has as its system BT474 tumor cells. Put plainly: In vivo efficacy study (tumor growth suppression), BT474 xenograft. The following applies: BT474 xenograft mice, after 14 days of dosing at 40 mg/kg bid po.
The test system of another experiment is pAkt(5473), BT474 cells. As to the kind of experiment: In-cell Western assay, pAkt(5473) in BT474 cells. Type of experiment: cell-based. The following applies: Homo sapiens, BT-474, BT474 cell line, read-out: inhibition of pAkt(5473), IC50.
The test system of the next experiment is BT474 cells. As to the kind of experiment: XTT assay for cell viability, BT474 cells. Type of experiment: cell-based. To be noted: Homo sapiens, BT-474, read-out: inhibition of cell proliferation, IC50. The method, then:
(§1) Using a commercial kit from Sigma Aldrich (Catalog #X34251) and following its protocol, PC3 cells in the log phase of growth were employed and seeded at an optimal density of 1000 cell/well on to 96 well plates and incubated for 24 h followed by the addition of compounds of formula (I) in serial dilutions. Compound dilutions were made in DMSO. The cells were incubated with the compounds of formula (I) for 96 h and XTT tetrazolium dye (Sigma, USA) was subsequently added and incubated at 37° C. After the color formation, absorbance was measured at 465 nm in a Spectramax® Gemini spectrophotometer. EC50 values were calculated using a sigmoidal dose response curve fit in GraphPad Prism® v5 software. The tested compounds of formula (I) which caused inhibition of PC3 cell proliferation as determined by this assay protocol are shown in Table 2.
(§2) XTT assays for cell viability are also determined in BT474 cells and T47D cells, in a similar manner to the protocol described above.

The next experiment has as its system pS6RP, T47D cells. Put plainly: In-cell Western assay, pS6RP in T47D cells. Type of experiment: cell-based. The following applies: Homo sapiens, T47D cell line, read-out: inhibition of pS6RP, IC50.
The next experiment concerns pS6RP, BT474 cells. As to the kind of experiment: In-cell Western assay, pS6RP in BT474 cells. The experiment is classed as cell-based. To be noted: Homo sapiens, BT-474, BT474 cell line, read-out: inhibition of pS6RP, IC50.
In a further experiment the test system is pAkt(5473), T47D cells. Put plainly: In-cell Western assay, pAkt(5473) in T47D cells. To be noted: Homo sapiens, T47D cell line, read-out: inhibition of pAkt(5473), IC50. Type of experiment: cell-based.
A further experiment concerns T47D cells. As to the kind of experiment: XTT assay for cell viability, T47D cells. Type of experiment: cell-based. The following applies: Homo sapiens, read-out: inhibition of cell proliferation, IC50. On the procedure: as §1, §2
Another experiment addresses PI3 kinase isoform γ (Homo sapiens, UniProt P48736). Put plainly: PI3 Kinase TR-FRET assay, isoform γ. The following applies: read-out: inhibition of PI3 kinase isoform γ, IC50. The experiment is classed as biochemical. On the procedure: The ability of compounds of the invention to inhibit PI3K activity was determined in a homogeneous TR-FRET assay using a PI3K assay kit (Millipore, USA; cat #33-016) according to manufacturer's instructions. PI3-Kinases (isoforms α, β, γ and δ) catalyze the phosphorylation of phosphatidylinositol, PIP2 to PIP3 in the presence of ATP and Mg^2+. The PIP3 product is detected by displacement of biotin-PIP3 from an energy transfer complex consisting of Europium labeled anti-GST monoclonal antibody, a GST-tagged PH domain, biotinylated PIP3 and Streptavidin-APC. Excitation of Europium in the complex results in an energy transfer to the APC and a fluorescence emission at 665 nm. The PIP3 product displaces biotin-PIP3 from the complex resulting in a loss of energy transfer and thus a decrease in signal.
To test for the ability of compounds to inhibit the activity of PI3Kα (wild-type), exemplary compounds of formula (I) were dissolved in DMSO and directly distributed into 384-well plates at a volume of 0.5 μL. […] Fluorescence was measured at 615 and 665 nm upon excitation at 340 nm in a Victor™ V5 fluorometer (Perkin Elmer, USA). The fluorescence emission ratio at 665 to 615 nm, proportional to the kinase activity, was plotted against the compound concentration to generate dose-response curves and IC50 values were determined using GraphPad Prism® 5 software. […]

Sequence of PI3 kinase isoform γ (P48736 whole entry, the tested form may be a part, canonical isoform): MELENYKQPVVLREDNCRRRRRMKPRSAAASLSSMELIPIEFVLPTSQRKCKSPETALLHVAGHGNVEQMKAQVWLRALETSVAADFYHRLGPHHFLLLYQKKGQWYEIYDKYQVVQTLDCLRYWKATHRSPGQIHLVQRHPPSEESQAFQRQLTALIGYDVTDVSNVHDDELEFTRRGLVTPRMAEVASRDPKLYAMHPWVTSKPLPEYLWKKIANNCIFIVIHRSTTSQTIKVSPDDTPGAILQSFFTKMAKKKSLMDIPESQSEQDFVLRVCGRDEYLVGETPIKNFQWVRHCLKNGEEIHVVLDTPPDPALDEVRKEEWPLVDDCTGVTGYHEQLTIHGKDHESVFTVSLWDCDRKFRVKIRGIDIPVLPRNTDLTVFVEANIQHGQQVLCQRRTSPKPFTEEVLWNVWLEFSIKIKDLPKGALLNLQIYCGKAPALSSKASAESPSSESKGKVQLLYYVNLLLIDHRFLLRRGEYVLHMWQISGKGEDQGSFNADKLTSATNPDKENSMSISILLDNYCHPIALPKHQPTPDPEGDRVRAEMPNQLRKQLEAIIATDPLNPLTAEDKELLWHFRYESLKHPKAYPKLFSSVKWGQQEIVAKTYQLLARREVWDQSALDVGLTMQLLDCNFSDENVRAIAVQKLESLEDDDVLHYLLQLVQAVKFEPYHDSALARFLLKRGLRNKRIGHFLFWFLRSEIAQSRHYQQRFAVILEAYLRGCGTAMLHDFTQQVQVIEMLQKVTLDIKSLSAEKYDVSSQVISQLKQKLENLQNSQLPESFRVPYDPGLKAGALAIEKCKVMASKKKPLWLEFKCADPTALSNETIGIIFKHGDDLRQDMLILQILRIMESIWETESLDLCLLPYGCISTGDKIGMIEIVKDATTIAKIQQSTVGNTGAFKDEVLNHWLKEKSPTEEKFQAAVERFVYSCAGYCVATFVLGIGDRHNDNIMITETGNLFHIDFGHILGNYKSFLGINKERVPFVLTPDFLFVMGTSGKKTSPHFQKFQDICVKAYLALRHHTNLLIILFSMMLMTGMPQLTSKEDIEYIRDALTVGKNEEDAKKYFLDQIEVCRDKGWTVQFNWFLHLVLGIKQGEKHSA

Consider `CN(C)C(=O)c1ccc(NC(=O)Nc2ccc(-c3nc(N4CCOCC4)c4ccc(-c5ccco5)cc4n3)cc2)cc1` [Example 51, 4-{3-[4-(7-furan-2-yl-4-morpholin-4-yl-quinazolin-2-yl)-phenyl]-ureido}-N,N-dimethyl-benzamide], for which, in the experiment with BT474 tumor cells, the “tumor growth inhibition relative to vehicle control group” value is “about 70%”.

Turning to `CN(C)C(=O)c1ccc(NC(=O)Nc2ccc(-c3nc(N4CCOCC4)c4ccc(-c5cncnc5)cc4n3)cc2)cc1` [Example 1, N,N-Dimethyl-4-(3-{4-[4-morpholin-4-yl-7-pyrimidin-5-yl-quinazolin-2-yl)-phenyl]-ureido}-benzamide], the IC50 in the experiment with pAkt(5473), BT474 cells is less than 300 nM; with BT474 cells it was less than 100 nM; with pS6RP, T47D cells it was less than 50 nM; in the experiment on pS6RP, BT474 cells, less than 50 nM; in the experiment with pAkt(5473), T47D cells it was less than 300 nM; in the experiment on T47D cells, less than 100 nM.

As to `Cc1ccc(-c2ccc3c(N4CCOCC4)nc(-c4ccc(NC(=O)Nc5ccc(C(=O)N(C)C)cc5)cc4)nc3c2)o1` [Example 2, N,N-Dimethyl-4-(3-{4-[7-(5-methyl-furan-2-yl)-4-morpholin-4-yl-quinazolin-2-yl]-phenyl}-ureido)-benzamide], the “tumor growth inhibition relative to vehicle control group” value in the experiment on BT474 tumor cells is on record as “about 65%”. For the same compound, at PI3 kinase isoform γ, the IC50 is less than 1000 nM.
